As a reminder, the IC50 is the point on the concentration scale where inhibition reaches its midpoint.

Fasciola hepatica TIM (FhTIM), sequence (S4UI50 entry or part of it): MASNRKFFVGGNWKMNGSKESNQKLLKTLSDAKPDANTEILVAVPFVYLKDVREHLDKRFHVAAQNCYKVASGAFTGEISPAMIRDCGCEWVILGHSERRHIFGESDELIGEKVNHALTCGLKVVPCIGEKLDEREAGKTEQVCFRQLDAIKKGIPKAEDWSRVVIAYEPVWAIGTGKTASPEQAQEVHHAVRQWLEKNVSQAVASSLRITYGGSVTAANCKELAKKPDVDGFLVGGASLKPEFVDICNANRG

The first experiment deals with Fasciola hepatica TIM (FhTIM) (Fasciola hepatica, UniProt S4UI50). The experiment in a line: Inhibition of recombinant FhTIM, coupled enzyme assay. The format is biochemical. The note with it: Figure 1, ranges of inhibitory activity; read-out: IC50 range. As for the experimental part:
Expression and purification of proteins: FhTIM, RabbitTIM and HsTIM were expressed in Escherichia coli and purified as described in the literature[31],[37]. […] Before use, extensive dialysis against 100 mM triethanolamine/10 mM EDTA (pH 7.4) was performed. […] Enzymatic activity was determined following the conversion of glyceraldehydes-3-phosphate into dihydroxyacetone phosphate in a coupled enzyme assay. The decrease in absorbance at 340 nm was followed in a multiplate reader VarioskanTM Flash Multimode Reader (Thermo ScientificTM, Waltham, MA, USA) at 38 °C. The reaction mixture (1 mL, pH 7.4) contained 100 mM triethanolamine, 10 mM EDTA, 0.2 mM NADH, 1 mM glyceraldehydes-3-phosphate and 0.9 units of α-glycerol phosphate dehydrogenase. The reaction was initiated by the addition of 5 ng/mL of the TIM of interest. For the inhibition studies, TIM was incubated at a concentration of 5 mg/mL in a buffer containing 100 mM triethanolamine, 10 mM EDTA, pH 7.4 and 10% of DMSO at 37 °C for 1 h. The mixture also contained the compounds, dissolved in DMSO, at the indicated concentrations. After 1 h, 10 µL were withdrawn and added to a final volume of 100 µL of the reaction mixture for the activity assay. The inhibition assay was performed in a 96-well microplate. […] The experiments were performed in triplicate in two independent experiments.
For `[O-][n+]1c2ccc(O)cc2[n+]([O-])c2cc(Cl)c(Cl)cc21` [Compound 183], the IC50 was under 50 µM.

The same experiment, now with this note: Table 1S, screening of 340 compounds in FhTIM; table head prints no unit, µM per b8/b9; read-out: IC50.
For `N#Cc1c2ccccc2[n+]([O-])n1CCC=Cc1ccc(Cl)cc1` [Compound 501], the IC50 is over 100 µM.
With `Clc1ccc(-c2csc(NN=CC=Cc3ccco3)n2)cc1` [Compound 901], the IC50 is over 100 µM.
With `O=C(/C=C/c1ccco1)N1CCN(C/C=C/c2ccccc2)CC1` [Compound 50], the IC50 is over 100 µM.
As for `C=CCn1c(-c2ccc(Cl)cc2)csc1=NN=C/C=C/C=C/c1cccs1` [Compound 311], the concentration for half-maximal inhibition (IC50) lay in the range of 50 to 100 µM.
On to `COc1ccc(NC(=O)CCl)cc1` [Compound 379], for which the IC50 is over 100 µM.
On to `CCCCNS(=O)(=O)NCCCC` [Compound 123], for which the concentration for half-maximal inhibition (IC50) is over 100 µM.
With `CC(=O)Nc1ccc(C=C2CN(C)CC(=Cc3ccc(NC(C)=O)cc3)C2=O)cc1` [Compound 1281], the IC50 was over 100 µM.
For the molecule `O=C1C(=Cc2ccccc2)CCC1=Cc1ccccc1` [Compound 1247], the IC50 lay within 50 to 100 µM.
For the molecule `O=C1C(=C2Nc3ccccc3C2=O)Nc2ccccc21` [Compound 879], the IC50 was over 100 µM.
Still for that read-out and setting: as for `C=CCn1c(C(=O)CNN2CCN(C/C=C/c3ccccc3)CC2)csc1=NN=C/C=C/c1ccco1` [Compound 1115], the figure is over 100 µM; as for `C=CCN1C(=O)CSC1=NN=Cc1cccs1` [Compound 273], over 100 µM; as for `COc1nn(CCOCCN(C)C)c2ccc([N+](=O)[O-])cc12` [Compound 474], over 100 µM.
On to `[O-][n+]1onc2ccc(CN3CCN(CC=Cc4ccccc4)CC3)cc21` [Compound 609], for which the IC50 is over 100 µM.
`C=CCN1C(=O)CSC1=NN=Cc1ccc([N+](=O)[O-])s1` [Compound 129]: the IC50 is over 100 µM.
Take `Cc1nnc[n+]([O-])c1CC(c1ccc([N+](=O)[O-])cc1)N1CCOCC1` (stereo not drawn) [Compound 360]: the IC50 is over 100 µM.
Consider `C=CCNC(=S)NN=Cc1ccnc2ccccc12` [Compound 308], for which the IC50 was in the range of 50 to 100 µM.
The same measure, in the same setting: as for `Cc1ccc2c(c1)nc(-c1ccc(N(C)C)cc1)n2CCc1ccccc1` [Compound 696], the figure is over 100 µM; as for `[O-][n+]1onc2ncc(Cl)cc21` [Compound 671], over 100 µM; as for `Nc1ccc2c(c1)[n+]([O-])c1cc(Cl)ccc1[n+]2[O-]` [Compound 184], over 100 µM.
On the same count and under the same terms, as for `N#Cc1c2ccccc2[n+]([O-])n1CCCl` [Compound 483], the figure is over 100 µM; as for `O=[N+]([O-])c1ccc2c(c1)c(OCc1ccccc1)nn2CCCCCBr` [Compound 518], 100 µM.
For `C=CCn1c(-c2ccc(Br)cc2)csc1=NN=C(C)C1CCC2C3CC=C4CC(O)CCC4(C)C3CCC12C` (stereo not drawn) [Compound 1272], the IC50 is over 100 µM.
As for `[O-][n+]1onc(-c2ccccc2)c1CNc1cccc2ccccc12` [Compound 169], the IC50 was over 100 µM.
For the molecule `C=CCn1c(-c2csc(=NN=CC=Cc3cccs3)n2CC=C)csc1=NN=CC=Cc1cccs1` [Compound 1118], the IC50 is over 100 µM.
Regarding `C(=Cc1ccco1)C=NN1CCN(CC=Cc2ccccc2)CC1` [Compound 912], the IC50 was over 100 µM.
Consider `Cc1ccc(C=CC=CC(C=CC=Cc2ccc(C)o2)=NN2CCN(CC=Cc3ccccc3)CC2)o1` [Compound 1102], for which the IC50 is over 100 µM.
As for `C=CCn1c(C(=O)CN2CCSCC2)csc1=NN=CC=Cc1ccco1` [Compound 1116], the IC50 was over 100 µM.
Turning to `C=CCNC(=S)NN=CC=Cc1ccccc1` [Compound 300], the IC50 is over 100 µM.
The same measure, in the same setting: with `CCCCOC(=O)c1nc2ccc([N+](=O)[O-])cc2n1O` [Compound 550] the figure was over 100 µM; with `C=CCNC(=S)NN=Cc1cncc(Br)c1` [Compound 307], over 100 µM.
Consider `S=C(NN=Cc1cccs1)Nc1ccccc1` [Compound 279], for which the IC50 is over 100 µM.
Take `NC(=NO)c1ccc(Br)cc1` [Compound 1105]: the IC50 is over 100 µM.
As to `C=CCN1C(=O)CSC1=NN=CC=Cc1ccco1` [Compound 264], the IC50 is over 100 µM.
Consider `CC(=O)Nc1ccc(C#N)cc1` [Compound 1104], for which the IC50 was over 100 µM.
On to `COc1ccc(C=O)cc1-c1cc(C=O)ccc1OC` [Compound 237], for which the IC50 was over 100 µM.
As to `CC(=O)N(C1=NN(C(C)=O)C(c2ccc([N+](=O)[O-])s2)S1)c1ccccc1` (stereo not drawn) [Compound 130], the IC50 was over 100 µM.
Take `C=CCn1c(-c2ccccc2)csc1=NN=Cc1ccco1` [Compound 1109]: the IC50 was over 100 µM.
Still for that read-out and setting: as for `O=C1CC(=O)N(CCc2ccccc2)S(=O)(=O)N1CCc1ccccc1` [Compound 127], the figure is over 100 µM; as for `CN1CC(=CC=Cc2cccs2)C(=O)C(=CC=Cc2cccs2)C1` [Compound 1285], over 100 µM; as for `O=C1C(=Cc2ccccc2)CCCC1=Cc1ccccc1` [Compound 799], 100 µM.
Still for that read-out and setting: with `NC1=NS(=O)(=O)N=C(N)C1` [Compound 126] the figure was 100 µM; with `CCCCNC(=O)NN=Cc1no[n+]([O-])c1C` [Compound 175], over 100 µM.
As to `N#Cc1c2ccccc2[n+]([O-])n1C/C=C/c1ccccc1` [Compound 500], the IC50 was over 100 µM.
Still for that read-out and setting: with `O=C1CSC(=NN=C/C=C/C=C/c2cccs2)N1c1ccccc1` [Compound 313] the figure was over 100 µM; with `[Se]=C(NCCN1CCOCC1)NN=CC=Cc1ccco1` [Compound 1147], 50 to 100 µM; with `Cc1ccc(-c2cc(C(F)(F)F)nn2-c2ccc(S(N)(=O)=O)cc2)cc1` [Compound 1121], over 100 µM.
With `C=CCn1c(-c2csc(=NN=Cc3ccc(S(=O)(=O)O)o3)n2-c2ccccc2)csc1=NN=CC=Cc1ccco1` [Compound 785], the IC50 was over 100 µM.
As for `COc1nn(CCOCCI)c2ccc([N+](=O)[O-])cc12` [Compound 514], the IC50 was over 100 µM.
For `CN1CC(=Cc2ccc(S(=O)(=O)O)o2)C(=O)C(=Cc2ccc(S(=O)(=O)O)o2)C1` [Compound 1286], the IC50 was over 100 µM.
For the molecule `Cc1c(CNc2cccc3ccccc23)no[n+]1[O-]` [Compound 172], the IC50 is over 100 µM.
Turning to `C=CCn1c(C(=O)NN2CCOCC2)csc1=NN=CC=Cc1ccco1` [Compound 1124], the IC50 is over 100 µM.
For the molecule `C=CCn1c(C)csc1=NN=Cc1ccco1` [Compound 1110], the IC50 was over 100 µM.
Turning to `CC(C)OC(CC[P+](c1ccccc1)(c1ccccc1)c1ccccc1)OC(C)C` [Compound 497], the IC50 was over 100 µM.
Turning to `O=C1C(=CC=Cc2ccccc2)CCCC1=CC=Cc1ccccc1` [Compound 800], the IC50 is over 100 µM.
`CN1CC(=Cc2ccccc2)C(=O)C(=Cc2ccccc2)C1` [Compound 357]: the IC50 was over 100 µM.
Consider `CC(=O)Nc1ccc(C=NO)cc1` [Compound 1106], for which the IC50 was over 100 µM.
Same read-out and setting: with `C=CCn1c(C)csc1=NN=Cc1ccc2ccccc2c1` [Compound 904] the figure was over 100 µM; with `O=C1C(=Cc2ccco2)CCCC1=Cc1ccco1` [Compound 808], over 100 µM.
Consider `C=CCNC(=S)NN=Cc1ccc(C)o1` [Compound 788], for which the IC50 was over 100 µM.
For the molecule `Cc1c(CNc2ccc3ccccc3c2)no[n+]1[O-]` [Compound 173], the IC50 lay within 50 to 100 µM.
As to `CC(=O)N(C1=NN(C(C)=O)C(c2cccs2)S1)c1ccccc1` (stereo not drawn) [Compound 284], the IC50 is over 100 µM.
On to `C=CCn1c(C(=O)O)csc1=NN=C/C=C/c1ccc(C)o1` [Compound 789], for which the IC50 was over 100 µM.
On the same count and under the same terms, as for `C=CCn1c(C)csc1=NN=CC=Cc1ccccc1` [Compound 1135], the figure is over 100 µM; as for `Cc1nnc[n+]([O-])c1C=Cc1ccc([N+](=O)[O-])o1` [Compound 359], over 100 µM; as for `C=CCn1c(-c2ccc(Br)cc2)csc1=NN=CC=Cc1ccco1` [Compound 306], 50 to 100 µM.
Still for that read-out and setting: as for `Cc1c(C=NNC(N)=O)no[n+]1[O-]` [Compound 159], the figure is over 100 µM; as for `O=[N+]([O-])c1ccc2c(c1)c(OCc1ccccc1)nn2CCOCCBr` [Compound 516], over 100 µM; as for `ON=Cc1ccc(O)cc1` [Compound 1113], over 100 µM.
In the case of `Cc1csc(=NN=Cc2cccs2)n1-c1ccccc1` [Compound 1103], the IC50 is over 100 µM.
Regarding `CC(/C=N/N1CCSCC1)=C\c1ccco1` [Compound 878], the IC50 fell in the range of 50 to 100 µM.
Turning to `C=CCn1c(-c2ccccc2)csc1=NN=Cc1ccc([N+](=O)[O-])s1` [Compound 147], the IC50 was over 100 µM.
Regarding `O=[N+]([O-])c1ccc2c(c1)c(OCc1ccccc1)nn2CCCCCN1CCN(CC=Cc2ccccc2)CC1` [Compound 505], the IC50 is over 100 µM.
For the molecule `NNC(=O)c1ccc2c(c1)OCO2` [Compound 711], the IC50 was over 100 µM.
On the same count and under the same terms, as for `NC(=S)NN=Cc1ccc([N+](=O)[O-])s1` [Compound 283], the figure is over 100 µM; as for `O=C1CSC(=NN=Cc2cccs2)N1c1ccccc1` [Compound 293], over 100 µM.

The experiment is the same for the next values; noted with them: recombinant FhTIM, 1 h incubation with compound at 37 °C; read-out: IC50.
Consider `[O-][n+]1c2ccc(O)cc2[n+]([O-])c2cc(Cl)c(Cl)cc21` [Compound 183], for which the IC50 turned out to be 25 ± 3 µM.
Regarding `CN(C)CCCNS(=O)(=O)NCCCN(C)C` [Compound 121], the IC50 turned out to be 50 ± 9 µM.

(Values after publication PMC7018972, “Novel and selective inactivators of Triosephosphate isomerase with anti-trematode activity” (Scientific Reports, 2020).)
